Reference: patent publication EP4800015A1, “AZABICYCLO DERIVATIVE AND PREPARATION METHOD THEREFOR, AND USE” (Zhejiang Hisun Pharmaceutical Co., Ltd., priority 2023, dated 2025)

How the values were obtained:
[1] = Metabolic stability in human liver microsomes; format: in vitro ADME; details: human liver microsomes 0.5 mg mL^-1, NADPH 1 mM, 0-60 min; read-out: Liver microsomal stability t1/2 (min) Human
Method: (§1) The purpose of this study was to investigate the metabolic stability of the compounds of the present disclosure in human and dog liver microsomes.
(§2) The compounds were co-incubated with human (or dog) liver microsomes, and the reaction was initiated by adding coenzyme NADPH (1 mM). At 0, 5, 15, 30, and 60 minutes, 60 µL of incubation solution was removed, and 180 µL of acetonitrile containing internal standard (clopidogrel) was added to quench the reaction, the mixture was shaken for 10 seconds, centrifuged at 10000 rpm for 10 minutes, and the supernatant was taken for analysis by LC-MS/MS. The in vitro intrinsic clearance was calculated based on the elimination half-life of the test compound in the incubation system. Midazolam was used as an internal reference compound, with two parallel incubations for each. Incubation conditions are summarized in Table 6 below: Table 6 Incubation conditions for the example compounds of the present disclosure
(§3) The ratio of the peak area of analyte to internal standard (Aanalyte/AIS) was obtained from the instrument, and the remaining percentage (%Control) was calculated from the ratio of Aanalyte/AIS in non-zero time point samples to zero time samples. Ln (%Control) was plotted against incubation time and linearly fitted. The test compound clearance constant (k, min^-1) and clearance half-life (T1/2, min) were calculated using the following equations. k = −slope [formula] T1/2 = 0.693/k. [formula]

[2] = system: RL95-2 cells; test: Inhibition of RL95-2 cell proliferation (CellTiter-Glo); format: cell-based; details: Homo sapiens; RL95-2 cells (MSI-H), 120 hours
Summary of the method: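 Proliferation IC50 derived by nonlinear regression of % inhibition against log concentration, with 0.1% DMSO wells as reference. CellTiter-Glo luminescence was read after 120 h of compound exposure (10000 nM down to 1.52 nM final) at 37 °C. MSI-H RL95-2 cells seeded at 500/well in DMEM/F12 with 10% FBS the day before.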

[3] = Metabolic stability in dog liver microsomes; format: in vitro ADME; details: dog liver microsomes 0.5 mg mL^-1, NADPH 1 mM, 0-60 min; read-out: Liver microsomal stability t1/2 (min) Dog
Method: as §1, §2, §3

[4] = target: T1, recombinant human WRN (Homo sapiens, UniProt Q14191); test: Inhibition of WRN enzyme activity (ATPase), ADP-Glo Kinase Assay; format: biochemical; details: WRN protein 5 nM, Flap 0.1 nM, ATP 30 µM; read-out: IC50
T1 construct: purchased BPS 101264
T1 sequence (Q14191 whole entry): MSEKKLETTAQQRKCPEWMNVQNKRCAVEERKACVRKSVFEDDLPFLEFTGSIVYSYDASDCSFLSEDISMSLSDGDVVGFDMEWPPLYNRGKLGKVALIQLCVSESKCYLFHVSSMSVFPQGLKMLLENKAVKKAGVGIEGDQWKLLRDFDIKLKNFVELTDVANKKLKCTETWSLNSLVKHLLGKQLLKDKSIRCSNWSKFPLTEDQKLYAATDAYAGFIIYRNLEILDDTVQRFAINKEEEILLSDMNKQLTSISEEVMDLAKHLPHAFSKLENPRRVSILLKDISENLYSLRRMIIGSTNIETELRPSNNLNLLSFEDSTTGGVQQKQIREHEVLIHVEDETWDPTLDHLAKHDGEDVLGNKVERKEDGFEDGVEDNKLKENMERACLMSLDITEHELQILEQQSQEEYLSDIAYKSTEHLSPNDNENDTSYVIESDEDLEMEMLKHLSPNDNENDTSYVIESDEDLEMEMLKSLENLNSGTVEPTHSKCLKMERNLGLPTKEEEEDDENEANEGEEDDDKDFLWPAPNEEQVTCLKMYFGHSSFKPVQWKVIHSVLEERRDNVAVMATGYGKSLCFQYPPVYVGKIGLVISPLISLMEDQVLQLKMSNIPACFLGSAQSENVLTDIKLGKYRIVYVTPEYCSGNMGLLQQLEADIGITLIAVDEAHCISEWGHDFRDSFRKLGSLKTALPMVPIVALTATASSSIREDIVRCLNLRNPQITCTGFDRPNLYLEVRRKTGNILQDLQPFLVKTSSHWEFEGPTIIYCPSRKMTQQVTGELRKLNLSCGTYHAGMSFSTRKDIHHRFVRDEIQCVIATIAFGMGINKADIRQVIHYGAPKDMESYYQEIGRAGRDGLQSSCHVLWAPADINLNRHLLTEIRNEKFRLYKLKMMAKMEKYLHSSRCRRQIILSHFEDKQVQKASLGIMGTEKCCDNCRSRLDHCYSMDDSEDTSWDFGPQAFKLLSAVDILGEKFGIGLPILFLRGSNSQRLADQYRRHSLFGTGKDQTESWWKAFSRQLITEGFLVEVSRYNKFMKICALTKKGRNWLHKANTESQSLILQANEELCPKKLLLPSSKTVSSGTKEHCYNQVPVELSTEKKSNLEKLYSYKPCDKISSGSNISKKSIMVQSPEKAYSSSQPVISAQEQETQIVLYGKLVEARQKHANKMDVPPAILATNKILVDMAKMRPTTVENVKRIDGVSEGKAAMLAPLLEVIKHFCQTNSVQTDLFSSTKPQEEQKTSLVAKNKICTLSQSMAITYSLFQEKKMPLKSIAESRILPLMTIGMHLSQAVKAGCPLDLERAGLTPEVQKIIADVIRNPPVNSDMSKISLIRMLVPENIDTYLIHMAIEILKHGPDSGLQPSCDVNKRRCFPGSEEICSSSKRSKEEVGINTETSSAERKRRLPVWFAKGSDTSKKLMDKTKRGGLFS
Summary of the method: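 ATPase activity was measured by ADP-Glo luminescence after a 10-min room-temperature reaction with 30 µM ATP and 0.1 nM Flap26 oligonucleotide substrate. The 5 nM WRN had first been exposed to compound (0.004–1000 nM) for 15 min in pH 7.5 Tris buffer with 2 mM MgCl2. IC50 values came from log-concentration regression against the DMSO control.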

[5] = Pharmacokinetic test in mice after intragastric administration; format: in vivo; details: male, mouse, plasma, ICR mice, Oral (10 mg/kg); for AUC(0-t): read-out: Area under curve AUC0-t; for half-life: read-out: Half-life T1/2 (converted); for Cmax: read-out: Plasma concentration Cmax
Method: ICR mice were used as test animals, the plasma concentrations of the control compound HRO761 and the compounds of the present disclosure at different time points after intragastric administration were determined by LC/MS/MS method, and the pharmacokinetic characteristics of the compounds of the present disclosure in mice were studied.
ICR mice, male, 30.8 to 38.0 g, purchased from Vital River Laboratory Animal Technology Co., Ltd.
An appropriate amount of the test compound was weighed, and an appropriate amount of DMA (N,N-dimethylacetamide), 30% Solutol HS15 (30% polyethylene glycol-15 hydroxystearate), and Saline (saline) were added sequentially, the mixture was ultrasonicated and vortex mixed to prepare a 1 mg/mL dosing formulation. The ratio of DMA:30% Solutol HS15:Saline was 5:5:90 (v/v/v).
After overnight fasting, ICR mice in each test compound injection group (9 mice per group) were administered intragastrically (PO, compound dose was 10 mg/kg, administration volume was 10 mL/kg), and food was given 4 hours after administration.
About 0.1 mL of blood was collected via the orbital cavity before administration and at 0.25 h, 0.5 h, 1 h, 2 h, 4 h, 8 h, 10 h, and 24 h after administration, and whole blood samples were placed in anticoagulant tubes containing EDTA-K2. The samples were placed on ice after collection, and plasma was separated by centrifugation (centrifugation conditions: 1500 g, 10 minutes). The collected plasma was stored at -40 to -20 °C before analysis.
The content of the test compound in mouse plasma after intragastric administration was determined by LC-MS/MS.

[6] = Caco-2 bidirectional permeability and efflux ratio; format: in vitro ADME; details: human, Caco-2, 10 µM, 120 minutes; for efflux ratio at 120 min, 10 µM: read-out: Efflux ratio Papp(B-A)/ Papp(A-B); for Papp A→B at 120 min, 10 µM: A to B; for Papp B→A at 120 min, 10 µM: B to A
Method: (§4) The bidirectional permeability and efflux ratio of the example compounds and control compound were determined in a Caco-2 monolayer cell model.
(§5) Caco-2 cells (cultured at Shanghai Medicilon Inc.) were recovered in the experiment. After the cells were in good condition, they were digested, and the cell density was adjusted (1 × 10^5 cells/cm^2). Caco-2 cells were seeded into Transwell chambers and placed in 24-well plates for cultivation. After continuous cultivation for about 21 days, TEER values were measured one day before the experiment to ensure formation of a confluent cell monolayer for transport experiments (TEER > 200 Ω·cm^2). Test compounds were diluted from 10 mM stock solutions to 10 µM concentration using transport buffer (HBSS containing BSA) (metoprolol and atenolol were set as positive compounds). For efflux determination, 0.6 mL of compound dilution solution was added to the outer well (side B), and 0.4 mL of blank transport buffer was added to the Transwell chamber. For absorption determination, 0.4 mL of transport buffer containing compound was added to the Transwell chamber, and 0.6 mL of blank transport buffer was added to the outer side. After setup, the 24-well plates were cultivated at 37 °C and 5% CO2 with 95% relative humidity for 120 minutes, and permeability of test compounds from A to B direction or B to A direction was measured, respectively, with two duplicate wells set for each direction. Liquid in Transwell chambers and 24-well plates was collected separately, 60 µL each, and 180 µL of acetonitrile (containing internal standard) was added, vortexed for 1 min, then centrifuged at 4 °C, 10000 rpm for 10 min. The supernatant was taken, filtered through a 0.22 µm membrane, and placed in vials for testing. The content of the compounds in each Transwell chamber and 24-well plate was determined by liquid chromatography-tandem mass spectrometry (LC-MS/MS). Table 4 Permeability data of compounds of the present disclosure

[7] = system: Caco-2 monolayer cell model; test: Caco-2 bidirectional permeability and efflux ratio; format: in vitro ADME; details: Caco-2, conclusion
Method: as §4, §5

[8] = system: SW48 cells; test: Inhibition of SW48 cell proliferation (CellTiter-Glo); format: cell-based; details: Homo sapiens; SW48 cells (MSI-H), 120 hours
Summary of the method: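 SW48 (MSI-H) cells in L-15 with 10% FBS were seeded at 500 per well, cultured overnight at 37 °C, then exposed to compound at final concentrations of 10000 nM to 1.52 nM for 120 h. Viability was read by CellTiter-Glo luminescence, with inhibition relative to 0.1% DMSO. IC50 from nonlinear regression of log concentration versus inhibition.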

| Compound | half-life [1] [min] | half-life [3] [min] | IC50 [4] [nM] | IC50 [8] [nM] | IC50 [2] [nM] | AUC(0-t) [5] [ng·h/mL] | half-life [5] [h] | Cmax [5] [ng/mL] | efflux ratio at 120 min, 10 µM [6] | Papp A→B at 120 min, 10 µM [6] [×10⁻⁶ cm/s] | Papp B→A at 120 min, 10 µM [6] [×10⁻⁶ cm/s] | efflux (in words) [7] | permeability (in words) [7] |
| --- | --- | --- | --- | --- | --- | --- | --- | --- | --- | --- | --- | --- | --- |
| CCc1c(N2CCN(C(=O)c3ncnc(C)c3O)CC2)c(=O)n2nc(-c3ccc4occc4c3)nc2n1CC(=O)Nc1ccc(C(F)(F)F)cc1Cl [Example 67, 2-(2-(benzofuran-5-yl)-5-ethyl-6-(4-(5-hydroxy-6-methylpyrimidine-4-carbonyl)piperazin-1-yl)-7-oxo-[1,2,4]triazolo[1,5-a]pyrimidin-4(7H)-yl)-N-(2-chloro-4-(trifluoromethyl)phenyl)acetamide] | 657 | 318 | < 1 | – | 1 to 100 | 83400 | 0.66 | 31400 | – | – | – | – | – |
| CCc1c(N2CCN(C(=O)c3ncnc(C)c3O)CC2)c(=O)n2nc(C3=CCOCC3)nc2n1CC(=O)Nc1ccc(C(F)(F)F)cc1Cl [HRO761, reference compound] | 483 | 175 | – | – | – | 15600 | 2.81 | 7010 | 3.65 | 3.96 | 14.5 | apparent potential efflux properties | moderate permeability |
| CCc1c(N2CCN(C(=O)c3ncnc(C)c3O)CC2)c(=O)n2nc(-c3ccc4ccoc4c3)nc2n1CC(=O)Nc1ccc(C(F)(F)F)cc1Cl [Example 68, 2-(2-(benzofuran-6-yl)-5-ethyl-6-(4-(5-hydroxy-6-methylpyrimidine-4-carbonyl)piperazin-1-yl)-7-oxo-[1,2,4]triazolo[1,5-a]pyrimidin-4(7H)-yl)-N-(2-chloro-4-(trifluoromethyl)phenyl)acetamide] | – | – | < 1 | – | 1 to 100 | 98900 | 2.41 | 17300 | 1.1 | 4.64 | 5.09 | no significant efflux | moderate permeability |

Further lines, with some results ahead:

| half-life [1] [min] | half-life [3] [min] | IC50 [4] [nM] | IC50 [8] [nM] | Compound | IC50 [2] [nM] | AUC(0-t) [5] [ng·h/mL] | half-life [5] [h] | Cmax [5] [ng/mL] | efflux ratio at 120 min, 10 µM [6] | Papp A→B at 120 min, 10 µM [6] [×10⁻⁶ cm/s] | Papp B→A at 120 min, 10 µM [6] [×10⁻⁶ cm/s] | efflux (in words) [7] | permeability (in words) [7] |
| --- | --- | --- | --- | --- | --- | --- | --- | --- | --- | --- | --- | --- | --- |
| 999 | 200 | 1 to 100 | – | CCc1c(N2CCN(C(=O)c3ncnc(C)c3O)CC2)c(=O)n2nc(-c3ccc4c(c3)CCO4)nc2n1CC(=O)Nc1ccc(C(F)(F)F)cc1Cl [Example 76, N-(2-chloro-4-(trifluoromethyl)phenyl)-2-(2-(2,3-dihydrobenzofuran-5-yl)-5-ethyl-6-(4-(5-hydroxy-6-methylpyrimidine-4-carbonyl)piperazin-1-yl)-7-oxo-[1,2,4]triazolo[1,5-a]pyrimidin-4(7H)-yl)acetamide] | 1 to 100 | – | – | – | – | – | – | – | – |
| 705 | 182 | < 1 | 1 to 100 | CCc1c(N2CCN(C(=O)c3ncnc(C)c3O)CC2)c(=O)n2nc(-c3ccc4ncsc4c3)nc2n1CC(=O)Nc1ccc(C(F)(F)F)cc1Cl [Example 125, 2-(2-(benzo[d]thiazol-6-yl)-5-ethyl-6-(4-(5-hydroxy-6-methylpyrimidine-4-carbonyl)piperazin-1-yl)-7-oxo-[1,2,4]triazolo[1,5-a]pyrimidin-4(7H)-yl)-N-(2-chloro-4-(trifluoromethyl)phenyl)acetamide] | 1 to 100 | – | – | – | – | – | – | – | – |
